The numbers were not newly measured in patent publication US5505931A, “Acid cleavable compounds, their preparation and use as bifunctional acid-labile crosslinking agents” (The Dow Chemical Company, priority 1993, dated 1996), which cites them from elsewhere.

The subject of this data set is tumor. The note with it: unconjugated controls.

Turning to `COc1cccc2c1C(=O)c1c(O)c3c(c(O)c1C2=O)C[C@@](O)(C(C)=O)C[C@@H]3O[C@H]1C[C@H](N)[C@H](O)[C@H](C)O1` [daunomycin], the “response in control experiments” value is “inferior response”.
